pIC50: −log10 of the molar value. The source made the active and inactive calls. No cut-off for these calls is given here.
Key:
[1] = test system: ECa-109 cell line; assay: Induction of apoptosis in human EC109 cells assessed as induction of cytochrome c release from mitochondria at 5 to 10 uM after 24 hrs by Western blot analysis; format: functional, cell-based
[2] = test system: ECa-109; assay: Disruption of mitochondrial membrane potential in human EC109 cells after 24 hrs by JC1 staining-based flow cytometric analysis; format: functional, cell-based
[3] = Cell cycle arrest in human EC109 cells assessed as accumulation at G2/M phase at 2.5 uM after 12 hrs by propidium iodide staining-based flow cytometric analysis (reference value: 13.72%); format: functional; conditions: ECa-109
[4] = test system: ECa-109 cell line; assay: Induction of apoptosis in human EC109 cells assessed as early apoptotic cells at 2.5 uM after 12 hrs by annexin V-FITC/propidium iodide staining-based flow cytometric analysis (reference value: 6.1%); format: functional
[5] = test system: SMMC-7721; assay: Cytotoxicity against human SMMC7721 cells assessed as growth inhibition after 72 hrs by MTT assay; format: functional, cell-based; conditions: SMMC-7721, 72 h
[6] = Cell cycle arrest in human EC109 cells assessed as accumulation at G2/M phase at 10 uM after 12 hrs by propidium iodide staining-based flow cytometric analysis (reference value: 13.72%); format: functional; conditions: ECa-109
[7] = test system: ECa-109 cell line; assay: Induction of apoptosis in human EC109 cells assessed as live cells at 20 uM after 24 hrs by annexin V-FITC/propidium iodide staining-based flow cytometric analysis (reference value: 93.6%); format: functional
[8] = Cell cycle arrest in human EC109 cells assessed as accumulation at S phase at 2.5 uM after 12 hrs by propidium iodide staining-based flow cytometric analysis (reference value: 33.29%); format: functional; conditions: ECa-109
[9] = test system: ECa-109 cell line; assay: Induction of apoptosis in human EC109 cells assessed as live cells at 10 uM after 24 hrs by annexin V-FITC/propidium iodide staining-based flow cytometric analysis (reference value: 93.6%); format: functional
[10] = test system: ECa-109 cell line; assay: Induction of apoptosis in human EC109 cells assessed as nuclear fragmentation at 1.25 to 20 uM after 24 hrs by Hoechst 33258 staining-based fluorescence microscopic analysis; format: functional, cell-based
[11] = test system: PC-3; assay: Cytotoxicity against human PC3 cells assessed as growth inhibition after 72 hrs by MTT assay; format: functional, cell-based; conditions: PC-3, 72 h
[12] = Cell cycle arrest in human EC109 cells assessed as accumulation at S phase at 5 uM after 24 hrs by propidium iodide staining-based flow cytometric analysis (reference value: 37.99%); format: functional; conditions: ECa-109
[13] = test system: ECa-109 cell line; assay: Induction of apoptosis in human EC109 cells assessed as early apoptotic cells at 5 uM after 12 hrs by annexin V-FITC/propidium iodide staining-based flow cytometric analysis (reference value: 6.1%); format: functional
[14] = test system: ECa-109 cell line; assay: Induction of apoptosis in human EC109 cells assessed as late apoptotic cells at 40 uM after 12 hrs by annexin V-FITC/propidium iodide staining-based flow cytometric analysis (reference value: 1.4%); format: functional
[15] = test system: MCF7; assay: Cytotoxicity against human MCF7 cells assessed as growth inhibition after 72 hrs by MTT assay; format: functional, cell-based; conditions: MCF7, 72 h
[16] = test system: MGC-803; assay: Cytotoxicity against human MGC803 cells assessed as growth inhibition after 72 hrs by MTT assay; format: functional, cell-based; conditions: MGC-803, 72 h
[17] = Upregulation of Bax protein expression in human EC109 cells at 5 to 10 uM after 24 hrs by Western blot analysis; format: functional, cell-based; conditions: ECa-109
[18] = test system: ECa-109 cell line; assay: Induction of apoptosis in human EC109 cells assessed as damaged cells at 5 uM after 24 hrs by annexin V-FITC/propidium iodide staining-based flow cytometric analysis (reference value: 0.1%); format: functional
[19] = test system: ECa-109 cell line; assay: Induction of apoptosis in human EC109 cells assessed as early apoptotic cells at 20 uM after 24 hrs by annexin V-FITC/propidium iodide staining-based flow cytometric analysis (reference value: 3.8%); format: functional
[20] = test system: ECa-109 cell line; assay: Induction of apoptosis in human EC109 cells assessed as increase in early apoptotic cells at 2.5 to 40 uM by annexin V-FITC/propidium iodide staining-based flow cytometric analysis; format: functional, cell-based; conditions: TDE = time-dependent effect
[21] = test system: ECa-109 cell line; assay: Induction of apoptosis in human EC109 cells assessed as increase in late apoptotic cells after 12 to 24 hrs by annexin V-FITC/propidium iodide staining-based flow cytometric analysis; format: functional, cell-based
[22] = test system: ECa-109 cell line; assay: Induction of apoptosis in human EC109 cells assessed as late apoptotic cells at 20 uM after 24 hrs by annexin V-FITC/propidium iodide staining-based flow cytometric analysis (reference value: 2.5%); format: functional
[23] = test system: ECa-109 cell line; assay: Induction of apoptosis in human EC109 cells assessed as damaged cells at 20 uM after 24 hrs by annexin V-FITC/propidium iodide staining-based flow cytometric analysis (reference value: 0.1%); format: functional
[24] = test system: ECa-109 cell line; assay: Induction of apoptosis in human EC109 cells assessed as damaged cells at 20 uM after 12 hrs by annexin V-FITC/propidium iodide staining-based flow cytometric analysis (reference value: 0.4%); format: functional
[25] = Cell cycle arrest in human EC109 cells assessed as accumulation at G0/G1 phase at 5 uM after 12 hrs by propidium iodide staining-based flow cytometric analysis (reference value: 50.87%); format: functional; conditions: ECa-109
[26] = test system: ECa-109 cell line; assay: Induction of apoptosis in human EC109 cells assessed as increase in early apoptotic cells after 12 to 24 hrs by annexin V-FITC/propidium iodide staining-based flow cytometric analysis; format: functional, cell-based
[27] = Cell cycle arrest in human EC109 cells assessed as accumulation at G2/M phase at 5 uM after 12 hrs by propidium iodide staining-based flow cytometric analysis (reference value: 13.72%); format: functional; conditions: ECa-109
[28] = test system: ECa-109 cell line; assay: Induction of apoptosis in human EC109 cells assessed as live cells at 5 uM after 24 hrs by annexin V-FITC/propidium iodide staining-based flow cytometric analysis (reference value: 93.6%); format: functional
[29] = test system: ECa-109 cell line; assay: Induction of apoptosis in human EC109 cells assessed as live cells at 2.5 uM after 12 hrs by annexin V-FITC/propidium iodide staining-based flow cytometric analysis (reference value: 92.1%); format: functional
[30] = test system: ECa-109 cell line; assay: Induction of apoptosis in human EC109 cells assessed as live cells at 40 uM after 24 hrs by annexin V-FITC/propidium iodide staining-based flow cytometric analysis (reference value: 93.6%); format: functional
[31] = Disruption of mitochondrial membrane potential in human EC109 cells at 10 uM after 24 hrs by JC1 staining-based flow cytometric analysis (reference value: 8.1%); format: functional, ECa-109
[32] = test system: ECa-109 cell line; assay: Induction of apoptosis in human EC109 cells assessed as damaged cells at 40 uM after 12 hrs by annexin V-FITC/propidium iodide staining-based flow cytometric analysis (reference value: 0.4%); format: functional
[33] = test system: ECa-109 cell line; assay: Induction of apoptosis in human EC109 cells assessed as damaged cells at 10 uM after 24 hrs by annexin V-FITC/propidium iodide staining-based flow cytometric analysis (reference value: 0.1%); format: functional
[34] = test system: ECa-109 cell line; assay: Induction of apoptosis in human EC109 cells assessed as damaged cells at 5 uM after 12 hrs by annexin V-FITC/propidium iodide staining-based flow cytometric analysis (reference value: 0.4%); format: functional
[35] = test system: ECa-109 cell line; assay: Induction of apoptosis in human EC109 cells assessed as increase in late apoptotic cells at 2.5 to 40 uM by annexin V-FITC/propidium iodide staining-based flow cytometric analysis; format: functional, cell-based; conditions: TDE = time-dependent effect
[36] = test system: ECa-109 cell line; assay: Induction of apoptosis in human EC109 cells assessed as early apoptotic cells at 2.5 uM after 24 hrs by annexin V-FITC/propidium iodide staining-based flow cytometric analysis (reference value: 3.8%); format: functional

## C[C@]12CC[C@H](O)CC1=CC[C@@H]1[C@@H]2CC[C@]2(C)c3nc4ncnn4c(-c4cccc(-c5c6c(nc7ncnn57)[C@@]5(C)CC[C@H]7[C@@H](CC=C8C[C@@H](O)CC[C@@]87C)[C@@H]5C6)c4)c3C[C@@H]12
[1]
  Activity: Active
[2]
  Activity: Dose-dependent effect
[3]
  Activity: 17.9%
[4]
  Activity: 26.9%
[5]
  pIC50: 5.77
[6]
  Activity: 28.3%
[7]
  Activity: 7.2%
[8]
  Activity: 34.2%
[9]
  Activity: 25.4%
[10]
  Activity: Active
[11]
  pIC50: 5.50
[12]
  Activity: 27%
[13]
  Activity: 24.1%
[14]
  Activity: 65.3%
[15]
  pIC50: 5.92
[16]
  pIC50: 6.89
[17]
  Activity: Active
[18]
  Activity: 0.4%
[19]
  Activity: 31.5%
[20]
  Activity: tde
[21]
  Activity: Dose-dependent effect
[22]
  Activity: 58.9%
[23]
  Activity: 2.4%
[24]
  Activity: 2.1%
[25]
  Activity: 52.9%
[26]
  Activity: Dose-dependent effect
[27]
  Activity: 20.8%
[28]
  Activity: 48.2%
[29]
  Activity: 58.3%
[30]
  Activity: 8.3%
[31]
  Activity: 76.7%
[32]
  Activity: 7.9%
[33]
  Activity: 2.9%
[34]
  Activity: 2%
[35]
  Activity: tde
[36]
  Activity: 25%

From ChEMBL document CHEMBL2434882, “A novel [1,2,4] triazolo [1,5-a] pyrimidine-based phenyl-linked steroid dimer: synthesis and its cytotoxic activity” (Eur J Med Chem, 2013)
